Measurements from patent US20100022589A1, “PYRIDINE-3-CARBOXAMIDE COMPOUNDS AND THEIR USE FOR INHIBITING 11-BETA-HYDROXYSTEROID DEHYDROGENASE” (priority 2006, published 2010).

Target: T1, human 11βHSD1 enzyme (Homo sapiens, UniProt P28845)
T1 construct: N terminal 6-His tagged full length human 11βHSD1 enzyme; 6-His (N); made in house
Assay: 11βHSD1 competitive HTRF assay (conversion of cortisone to cortisol)
Format: biochemical
Conditions: for IC50: baculovirus expressed N terminal 6-His tagged full length human 11βHSD1, cortisone 160 nM, 25 minutes at 37° C.; for activity in the 11βHSD1 assay: at 30 μM
Procedure: The conversion of cortisone to the active steroid cortisol by 11βHSD1 oxo-reductase activity, can be measured using a competitive homogeneous time resolved fluorescence assay (HTRF) (CisBio International, R&D, Administration and Europe Office, In Vitro Technologies—HTRF®/Bioassays BP 84175, 30204 Bagnols/Cèze Cedex, France. Cortisol bulk HTRF kit: Cat No. 62CORPEC).
The evaluation of compounds described herein was carried out using a baculovirus expressed N terminal 6-His tagged full length human 11βHSD1 enzyme(*1). The enzyme was purified from a detergent solublised cell lysate, using a copper chelate column. Inhibitors of 11βHSD1 reduce the conversion of cortisone to cortisol, which is identified by an increase in signal, in the above assay.
Compounds to be tested were dissolved in dimethyl sulphoxide (DMSO) to 10 mM and diluted further in assay buffer containing 10% DMSO to 10 fold the final assay concentration. Diluted compounds were then plated into black 384 well plates (Matrix, Hudson N.H., USA).
The assay was carried out in a total volume of 20 μl consisting of cortisone (Sigma, Poole, Dorset, UK, 160 nM), glucose-6-phosphate (Roche Diagnostics, 1 mM), NADPH (Roche Diagnostics, 100 μM), glucose-6-phosphate dehydrogenase (Roche Diagnostics, 12.5 μg/ml), EDTA (Sigma, Poole, Dorset, UK, 1 mM), assay buffer (K2HPO4/KH2PO4, 100 mM) pH 7.5, recombinant 11βHSD1 (1.5 μg/ml) plus test compound. The assay plates were incubated for 25 minutes at 37° C. after which time the reaction was stopped by the addition of 10 μl of 0.5 mM glycerrhetinic acid plus cortisol-XL665. 10 μl of anti-cortisol Cryptate was then added and the plates sealed and incubated for 6 hours at room temperature. Fluorescence at 665 nm and 620 nm was measured and the 665 nm:620 nm ratio calculated using an Envision plate reader.

T1 sequence (P28845 whole entry): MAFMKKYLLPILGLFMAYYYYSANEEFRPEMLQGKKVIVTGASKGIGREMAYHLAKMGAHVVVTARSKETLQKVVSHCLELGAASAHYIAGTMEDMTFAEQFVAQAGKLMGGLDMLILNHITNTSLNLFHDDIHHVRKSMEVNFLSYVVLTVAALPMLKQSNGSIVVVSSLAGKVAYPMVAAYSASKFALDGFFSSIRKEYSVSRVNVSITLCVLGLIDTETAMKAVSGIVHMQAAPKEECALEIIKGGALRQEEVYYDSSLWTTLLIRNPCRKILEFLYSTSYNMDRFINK

IC50 [nM] | Structure (SMILES) | activity in the 11βHSD1 assay
27 | O=C(NC1CCCCC1)c1cccnc1SCCc1ccccc1 [Example 4, N-Cyclohexyl-2-phenethylsulfanyl-pyridine-3-carboxamide] | 
 | O=C(NC1CCCCC1)c1ccc(C(F)(F)F)nc1SCCc1ccccc1 [N-cyclohexyl-2-(phenethylsulfanyl)-6-trifluoromethylpyridine-3-carboxamide] | did not show activity
 | O=C(O)c1ccccc1CCSc1ncccc1C(=O)NC1CCCCC1 [N-cyclohexyl-2-[2-(2-carboxyphenyl)ethyl)sulfanyl]pyridine-3-carboxamide] | did not show activity
890 | O=C(NC1CCCCC1)c1cccnc1SCCc1ccccn1 [Example 3, N-Cyclohexyl-2-(2-pyridin-2-ylethylsulfanyl)pyridine-3-carboxamide] | 
